As usually defined, the IC50 is the concentration at which inhibition is half-maximal.

One assay has as its target T1, human COX-1 (Homo sapiens, UniProt P23219).
T1 construct: expressed in transfected cells; host or cells: COS cells (stably transfected)
Description: Inhibition of human COX-1 in stably transfected COS cells (PGE2 release). Type of assay: cell-based. Conditions: COS cells stably transfected with human COX-1.

The subject of a further assay is male Sprague-Dawley rats. Description: Chronic Inescapable Shock in Rats (escape test). Type of assay: in vivo, rat. Conditions: stressed rats. The procedure: The Chronic Inescapable Shock in Rats model, developed from the learned Helplessness paradigm, was used to investigate the acquisition of shock-induced escape deficits in rats in the absence and presence of SSRI±COX-2 inhibitors. The test was performed over a period of seven days as an adaptation of the methodology used previously by Gambarana, C., […]. & De Montis, M. G. (1995). Experiments were carried out on male Sprague-Dawley rats (Charles River, Como, Italy). Animals were kept in a controlled environment with a constant temperature of 22° C. and a 12 hour light/12 hour inverted dark cycle, with free access to food and water. The procedures used in this study for all animals were in strict accordance with the European legislation on the use and care of laboratory animals (CEE N° 86/609) and experiments were performed under red light. The experimental procedure consists of a pre-test session (exposure to an unavoidable stress of minimum intensity and duration required to induce a reliable behavioural modification) followed 24 hours later by an escape test (for the assessment of the induced behavioural modification). […]

The target of another assay is T2, microsomal h-COX2 (Homo sapiens, UniProt P35354).
T2 construct: made in house; host or cells: baculovirus infected SF9 cells (microsomal preparation)
T2 sequence (P35354 18-604): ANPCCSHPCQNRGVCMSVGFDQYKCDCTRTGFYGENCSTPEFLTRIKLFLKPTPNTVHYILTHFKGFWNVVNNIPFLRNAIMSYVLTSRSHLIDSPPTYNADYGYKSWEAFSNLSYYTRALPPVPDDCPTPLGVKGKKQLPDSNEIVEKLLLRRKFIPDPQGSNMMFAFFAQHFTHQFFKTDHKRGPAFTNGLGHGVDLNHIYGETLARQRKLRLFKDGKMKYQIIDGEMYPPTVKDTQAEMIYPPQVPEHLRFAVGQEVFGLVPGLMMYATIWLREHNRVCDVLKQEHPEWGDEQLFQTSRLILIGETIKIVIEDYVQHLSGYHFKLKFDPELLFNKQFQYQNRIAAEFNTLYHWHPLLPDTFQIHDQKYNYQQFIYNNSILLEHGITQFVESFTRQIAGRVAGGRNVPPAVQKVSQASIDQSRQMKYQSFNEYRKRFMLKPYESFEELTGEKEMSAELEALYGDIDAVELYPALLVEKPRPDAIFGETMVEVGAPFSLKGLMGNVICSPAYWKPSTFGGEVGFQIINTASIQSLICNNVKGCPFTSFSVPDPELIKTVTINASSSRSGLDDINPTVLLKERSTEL
Description: Microsomal assay, COX-2 (microsomal preparation from baculovirus infected SF9 cells). The assay is classed as biochemical.

For another assay, the target named is T3, human COX-2 (Homo sapiens, UniProt P35354).
T3 construct: expressed in transfected cells; host or cells: COS cells (stably transfected)
T3 sequence (P35354 18-604): T2 sequence (P35354 18-604)
Description: Inhibition of human COX-2 in stably transfected COS cells (PGE2 release). The assay is classed as cell-based. Conditions: COS cells stably transfected with human COX-2.

Setting [1] is: microsomal assay, PGE2 by EIA, read-out: COX-2: IC50.

Where two headings read alike, the source gives them in different places. Some results are limits rather than exact numbers.

T1 sequence (P23219 24-599): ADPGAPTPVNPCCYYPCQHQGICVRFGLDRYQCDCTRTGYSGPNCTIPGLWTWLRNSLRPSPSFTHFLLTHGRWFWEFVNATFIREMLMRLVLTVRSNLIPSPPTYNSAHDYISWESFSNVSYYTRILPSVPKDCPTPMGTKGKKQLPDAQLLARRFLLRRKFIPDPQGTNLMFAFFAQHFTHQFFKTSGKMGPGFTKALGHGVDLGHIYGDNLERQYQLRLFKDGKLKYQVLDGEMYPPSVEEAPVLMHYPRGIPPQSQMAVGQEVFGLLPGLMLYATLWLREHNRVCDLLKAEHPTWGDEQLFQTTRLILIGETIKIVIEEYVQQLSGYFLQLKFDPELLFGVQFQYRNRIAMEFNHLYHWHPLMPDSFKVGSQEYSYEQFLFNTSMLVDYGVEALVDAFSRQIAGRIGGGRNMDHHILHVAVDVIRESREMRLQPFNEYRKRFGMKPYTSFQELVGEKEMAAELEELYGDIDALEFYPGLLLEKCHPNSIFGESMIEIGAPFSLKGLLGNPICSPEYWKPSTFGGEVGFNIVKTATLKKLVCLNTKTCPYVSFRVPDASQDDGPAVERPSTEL
Description for human COX-1: (§1) 24 Hours prior to experiment, COS cells were transferred from the 175 cm^2 flasks in which they were grown, onto 24-well cell culture plates using the following procedure. The incubation medium
(Dulbecco's modified eagles medium (DMEM) supplemented with heat-inactivated foetal calf serum (10% v/v), penicillin (100 lU/ml), streptomycin (100 μg/ml) and geneticin (600 μg/ml)) was removed from a flask of confluent cells (1 flask at confluency contains approximately 1×10^7 cells). 10 ml of phosphate buffered saline (PBS) was added to the flask to wash the cells. Having discarded the PBS, cells were then rinsed in 10 ml trypsin for 20 seconds, after which the trypsin was removed and the flask placed in an incubator (37°) for 1-2 minutes until cells became detached from the flask. The flask was then removed from the incubator and cells resuspended in 10 ml of fresh incubation medium. The contents of the flask was transferred to a 250 ml sterile container and the volume of incubation medium subsequently made up to 100 ml. […] The plates were then placed in an incubator (37° C., 95% air/5% CO2) overnight. If more than 1 flask of cells were required, the cells from the individual flasks were combined before being dispensed into the 24-well plates.
Following the overnight incubation, the incubation medium was completely removed from the 24-well cell culture plates and replaced with 250 μl fresh DMEM (37° C.). The test compounds were made up to 250× the required test concentration in DMSO and were added to the wells in a volume of 1 μl. Plates were then mixed gently by swirling and then placed in an incubator for 1 hour (37° C., 95% air/5% CO2). Following the incubation period, 10 μl of arachidonic acid (750 μM) was added to each well to give a final arachidonic acid concentration of 30 μM. Plates were then incubated for a further 15 minutes, after which the incubation medium was removed from each well of the plates and stored at −20° C., prior to determination of prostaglandin E2 (PGE2) levels using enzyme immunoassay. The inhibitory potency of the test compound was expressed as an IC50 value, which is defined as the concentration of the compound required to inhibit the PGE2 release from the cells by 50%. The selectivity ratio of inhibition of COX-1 versus COX-2 was calculated by comparing respective IC50 values.
Description for human COX-2: as §1
(Dulbecco's modified eagles medium (DMEM) supplemented with heat-inactivated foetal calf serum (10% v/v), penicillin (100 lU/ml), streptomycin (100 μg/ml) and geneticin (600 μg/ml)) was removed from a flask of confluent cells (1 flask at confluency contains approximately 1×10^7 cells). 10 ml of phosphate buffered saline (PBS) was added to the flask to wash the cells. Having discarded the PBS, cells were then rinsed in 10 ml trypsin for 20 seconds, after which the trypsin was removed and the flask placed in an incubator (37°) for 1-2 minutes until cells became detached from the flask. The flask was then removed from the incubator and cells resuspended in 10 ml of fresh incubation medium. The contents of the flask was transferred to a 250 ml sterile container and the volume of incubation medium subsequently made up to 100 ml. […] If more than 1 flask of cells were required, the cells from the individual flasks were combined before being dispensed into the 24-well plates.
Following the overnight incubation, the incubation medium was completely removed from the 24-well cell culture plates and replaced with 250 μl fresh DMEM (37° C.). […]
Description for microsomal h-COX2: Inhibitory activity against microsomal h-COX2 was assessed against a microsomal preparation from baculovirus infected SF9 cells. An aliquot of microsomal preparation was thawed slowly on ice and a 1/40,000 dilution prepared from it into the assay buffer (sterile water, degassed with argon containing 100 mM HEPES (pH 7.4), 10 mM EDTA (pH7.4), 1 mM phenol, 1 mM reduced glutathione, 20 mg/ml gelatin and 0.001 mM Hematin). Once diluted the enzyme solution was then sonicated for 5 seconds (Branson sonicator, setting 4, 1 cm tip) to ensure a homogeneous suspension. […] Plates were then mixed and incubated at room temperature for 1 hour. Following the incubation period, 40 μl of 0.5 μM arachidonic acid was added to each well to give a final concentration of 0.1 μM. Plates were then mixed and incubated for exactly 10 minutes (room temperature) prior to addition of 25 μl 1M HCl (hydrochloric acid) to each well to stop the reaction. 25 μl of 1M NaOH (sodium hydroxide) was then added to each well to neutralise the solution prior to determination of PGE2 levels by enzyme immunoassay (EIA).

In turn, `CS(=O)(=O)c1ccc(-c2c(-c3cccc(F)c3)nn3nc(OC(F)F)ccc23)cc1` [2.7(viii), 6-Difluoromethoxy-2-(3-fluoro-phenyl)-3-(4-methanesulfonyl-phenyl)-pyrazolo[1,5-b]pyridazine] registered an IC50 at human COX-1 of more than 55.2 µM.
The compound `CS(=O)(=O)c1ccc(-c2c(-c3ccc(F)cc3)nn3nc(OC(F)F)ccc23)cc1` [2.1(v), 6-Difluoromethoxy-2-(4-fluoro-phenyl)-3-(4-methanesulfonyl-phenyl)-pyrazolo[1,5-b]pyridazine] came in with an IC50 against human COX-1 of more than 100 µM.
At human COX-1, `CS(=O)(=O)c1ccc(-c2c(-c3ccc(OC(F)F)cc3)nn3ncccc23)cc1` [Compound 2.5, 2-(4-Difluoromethoxy-phenyl)-3-(4-methanesulfonyl-phenyl)-pyrazolo[1,5-b]pyridazine] came in with an IC50 of more than 100 µM.
Regarding `Fc1ccc([C@@H]2CCNC[C@H]2COc2ccc3c(c2)OCO3)cc1` (relative stereo) [PAROXETINE, trans-(−)-3-[(1,3-benzodioxol-5-yloxy)methyl]-4-(4-fluorophenyl)piperidine], the “MEAN Number of escapes” value in the assay on male Sprague-Dawley rats (7 days of treatment p.o., escapes out of 30 consecutive trials on day 8) is on record as 3.8. Also, the “reversal of chronic escape deficit” value with male Sprague-Dawley rats (after 7 days of treatment, day 8) is “lack of reversal of chronic inescapable shock”.
Turning to `CS(=O)(=O)c1ccc(-c2cc(C(F)(F)F)cc(OCc3ccccn3)n2)cc1` [Example 3.2, 2-[4-(methylsulfonyl)phenyl]-6-[(2-pyridinylmethyl)oxy]-4-(trifluoromethyl)pyridine], the IC50 on microsomal h-COX2 (stated in text after the microsomal assay table, read-out: IC50 values for inhibition of COX-2) was not above 0.5 µM.
In the case of `CS(=O)(=O)c1ccc(-c2cc(C(F)(F)F)nc(Oc3cncc(Cl)c3)n2)cc1` [Example 1.7], the IC50 on microsomal h-COX2 (setting [1]) is less than 0.01 µM.
`COc1ccc(-c2nn3ncccc3c2-c2ccc(S(C)(=O)=O)cc2)cc1` [2.2(ii), 3-(4-Methanesulfonyl-phenyl)-2-(4-methoxy-phenyl)-pyrazolo[1,5-b]pyridazine] yielded an IC50 against human COX-2 of less than 0.01 µM.
Consider `Cc1ccc(Oc2nc(-c3ccc(S(C)(=O)=O)cc3)cc(C(F)(F)F)n2)cc1` [Example 1.6], for which the IC50 at microsomal h-COX2 (setting [1]) is less than 0.01 µM.
At human COX-1, `CCOc1ccc(-c2nn3ncccc3c2-c2ccc(S(C)(=O)=O)cc2)cc1` [2.3(ii), 2-(4-Ethoxy-phenyl)-3-(4-methanesulfonyl-phenyl)-pyrazolol[5-b]pyridazine] had an IC50 of more than 100 µM.
